# Results taken from paper PMC7822874, “Chemoprotective antimalarials identified through quantitative high-throughput screening of Plasmodium blood and liver stage parasites” (Scientific Reports, 2021).
# Where two headings read alike, the source gives them in different places.
# How the values were obtained:
# [1] = biological target: Firefly luciferase (Fluc, EC 1.13.12.7) (Photinus pyralis, UniProt P08659); experiment: biochemical; set-up: single determination (the paper says generally: 'qHTS assays were performed in a single replicate with a 7- to 11-point dose response format'; it is not stated for this counterscreen itself)
# Sequence of Firefly luciferase (Fluc, EC 1.13.12.7) (P08659 whole entry): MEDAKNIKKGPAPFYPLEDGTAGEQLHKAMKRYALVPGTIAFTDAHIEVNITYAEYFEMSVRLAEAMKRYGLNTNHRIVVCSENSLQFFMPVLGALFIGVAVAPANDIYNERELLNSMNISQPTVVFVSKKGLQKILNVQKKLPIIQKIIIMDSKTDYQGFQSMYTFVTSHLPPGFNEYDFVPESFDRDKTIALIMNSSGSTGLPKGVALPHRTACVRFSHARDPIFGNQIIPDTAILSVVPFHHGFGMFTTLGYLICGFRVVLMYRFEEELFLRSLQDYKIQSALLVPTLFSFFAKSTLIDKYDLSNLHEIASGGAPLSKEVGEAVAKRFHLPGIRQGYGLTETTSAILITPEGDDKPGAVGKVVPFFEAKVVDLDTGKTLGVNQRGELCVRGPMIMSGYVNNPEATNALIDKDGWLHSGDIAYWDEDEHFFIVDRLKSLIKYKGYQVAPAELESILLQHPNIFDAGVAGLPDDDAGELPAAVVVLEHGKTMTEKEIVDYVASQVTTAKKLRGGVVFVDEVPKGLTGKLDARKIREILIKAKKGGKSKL
# [2] = in vitro; conditions: human, HepG2 cells; n = 1
# [3] = tested on: P. falciparum Dd2 (clone B2) asexual blood stage parasites; experiment: P. falciparum Dd2 asexual blood stage SYBR Green-I 72 h proliferation assay (qHTS); type: cell-based, Plasmodium falciparum; conditions: Plasmodium falciparum, DD2, 72 h, SYBR Green 72 h
# [4] = tested on: P. falciparum Dd2 Cytb G131S; experiment: SYBR Green ABS proliferation assay, NCGC00374598 selected clone C11; type: cell-based, Plasmodium falciparum; conditions: Plasmodium falciparum
# Outline: (§1)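 72 h SYBR Green-I read; % response = relative growth vs controls. Clones from resistance selection, cloned by limiting dilution; 37 °C, 5% CO2/5% O2/90% N2.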
# [5] = tested on: P. falciparum Dd2 Cytb V259L; experiment: SYBR Green ABS proliferation assay, NCGC00473217 selected clone F06; type: cell-based, Plasmodium falciparum; conditions: Plasmodium falciparum
# Outline: as §1
# [6] = tested on: P. falciparum Dd2 Cytb A122D; experiment: SYBR Green ABS proliferation assay, NCGC00473217 selected clone F12; type: cell-based, Plasmodium falciparum; conditions: Plasmodium falciparum
# Outline: as §1
# [7] = tested on: P. falciparum Dd2 Cytb F123L; experiment: SYBR Green ABS proliferation assay, NCGC00473217 selected clone G08; type: cell-based, Plasmodium falciparum; conditions: Plasmodium falciparum, DD2, NCGC00473217 selected clone G08; highest concentration 29 µM; read-out: AC50 [μM], Cytb F123L (converted)
# Outline: as §1
# [8] = Aqueous solubility; type: physicochemical; conditions: aqueous media
# Protocol: (§2) Pharmacokinetic modeling experiments, parallel artificial membrane permeability assay (PAMPA), solubility, and rat liver microsome stability assessment were performed on all synthetic compounds, as previously described[73]–[75].
# [9] = Parallel artificial membrane permeability assay (PAMPA); type: in vitro ADME; conditions: for PAMPA pH7.4: pH 7.4
# Protocol: as §2
# [10] = Rat liver microsomal stability (RLMS); conditions: rat, rat liver microsomes
# Protocol: as §2
# [11] = WT Dd2-B2, read-out: AC50 Log[M] ± SD, Dd2-B2 (parental line) (converted)
# [12] = approximate value in μM, read-out: AC50 [μM], Dd2-B2 (parental line) (converted)
# [13] = DD2, NCGC00374598 selected clone C11, read-out: AC50 [μM], Cytb G131S (converted)
# [14] = DD2, NCGC00374598 selected clone, read-out: AC50 Log[M] ± SD, Cytb G131S (converted)
# [15] = DD2, NCGC00473217 selected clone F06, read-out: AC50 [μM], Cytb V259L (converted)
# [16] = DD2, NCGC00473217 selected clone, read-out: AC50 Log[M] ± SD, Cytb V259L (converted)
# [17] = DD2, NCGC00473217 selected clone F12, read-out: AC50 [μM], Cytb A122D (converted)
# [18] = DD2, NCGC00473217 selected clone, read-out: AC50 Log[M] ± SD, Cytb A122D (converted)
SMILES,AC50 [1],CC50 at 48 h [2],"AC50 [3, 11]","AC50 [3, 12]","AC50 [4, 13]","AC50 [4, 14]","AC50 [5, 15]","AC50 [5, 16]","AC50 [6, 17]","AC50 [6, 18]",AC50 [7],solubility [8],PAMPA pH7.4 [9],half-life [10],PAMPA permeability [9]
O=C1c2cnc(-c3cc4ccccc4o3)nc2OCCN1c1ccccc1 [NCGC00413607-01],0.622 µM,8.86 µM,–,–,–,–,–,–,–,–,–,–,–,–,–
CCCN1C(CC(C)C)=NS(=O)(=O)c2cc(NC(=O)c3sccc3C)ccc21 [NCGC00521035],–,–,1.58e-06 M,1.59e-06 M,1.65 µM,1.66 µM,6.84 µM,6.76 µM,2.83 µM,2.82 µM,> 29 µM,< 1 µg/mL,1597 1e-6 cm/s,3.4 min,–
CC(C)CC1=NS(=O)(=O)c2cc(NC(=O)c3cccs3)ccc2N1C [NCGC00521057],–,–,1.86e-06 M,1.85e-06 M,0.225 µM,0.224 µM,> 29 µM,–,> 29 µM,–,> 29 µM,1.6 µg/mL,130 1e-6 cm/s,> 30 min,low permeability
CCCN1C(CC(C)C)=NS(=O)(=O)c2cc(NC(=O)c3ccc(F)cc3)ccc21 [NCGC00521139],–,–,5.25e-07 M,5.23e-07 M,0.355 µM,0.355 µM,> 29 µM,–,> 29 µM,–,> 29 µM,< 1 µg/mL,–,6.3 min,–
CCCN1C(CC(C)C)=NS(=O)(=O)c2cc(NC(=O)c3ccsc3)ccc21 [NCGC00521157],–,–,2e-06 M,2e-06 M,2.08 µM,2.09 µM,> 29 µM,–,> 29 µM,–,> 29 µM,< 1 µg/mL,178 1e-6 cm/s,3.7 min,–
CCCN1C(CC(C)C)=NS(=O)(=O)c2cc(NC(=O)c3ccc(Cl)s3)ccc21 [NCGC00523535],–,–,1.51e-06 M,1.53e-06 M,1 µM,1 µM,7.1 µM,7.08 µM,> 29 µM,–,> 29 µM,< 1 µg/mL,–,3.8 min,–
CCCN1C(CC(C)C)=NS(=O)(=O)c2cc(NC(=O)c3ccc(Cl)cc3)ccc21 [NCGC00531775],–,–,1.26e-06 M,1.26e-06 M,0.2 µM,0.2 µM,> 29 µM,–,> 29 µM,–,> 29 µM,< 1 µg/mL,–,4.1 min,–
CCCN1C(CC2CCC2)=NS(=O)(=O)c2cc(NC(=O)c3cccs3)ccc21 [NCGC00537664],–,–,4.47e-07 M,4.48e-07 M,0.466 µM,0.468 µM,1.19 µM,1.2 µM,1.35 µM,1.35 µM,> 29 µM,< 1 µg/mL,–,4.3 min,–
CN1C(CC2CCCCC2)=NS(=O)(=O)c2cc(NC(=O)c3ccc(F)s3)ccc21 [NCGC00651709],–,–,1.48e-06 M,1.5e-06 M,> 29 µM,–,> 29 µM,–,> 29 µM,–,> 29 µM,< 1 µg/mL,–,12.9 min,–
CN1C(c2ccccc2)=NS(=O)(=O)c2cc(NC(=O)c3ccc(F)s3)ccc21 [NCGC00651712],–,–,–,> 2.9e-05 M,> 29 µM,–,> 29 µM,–,> 29 µM,–,> 29 µM,< 1 µg/mL,–,> 30 min,–
CN1C(CC2CCCCC2)=NS(=O)(=O)c2cc(NC(=O)c3ccc(F)cc3)ccc21 [NCGC00651716],–,–,–,> 2.9e-05 M,> 29 µM,–,> 29 µM,–,> 29 µM,–,> 29 µM,< 1 µg/mL,–,6.6 min,–
